Laboratory results taken from PubChem BioAssay AID1963833 (Molecular Pharmacology Branch, DTP, NCI, 2024).

System: 883617-216-R-J1-PDC complex spheroid viability
Experiment: Anticancer human tumor 883617-216-R-J1-PDC patient-derived bladder carcinoma cell line growth inhibition [POLQ]
Details: for IC50: curve of first compound; for viability, T/C: stronger effect = lower value
Description: Multicellular complex tumor spheroid response to Polymerase (POL) inhibitors (novobiocin, ART-558, RP6685) in combination with a variety of drugs and investigational agents in selected tumor cell lines
The POL inhibitors (novobiocin, ART-558, and RP6685) were evaluated both individually and in combination with standard of care and investigational anticancer small molecules within a complex spheroid model of solid tumors. . Complex spheroids include a stromal component modeled by human endothelial cells (HUVEC) and fibroblasts modeled by human mesenchymal stem cells (MSCs). The concentration ranges selected for each drug and investigational agent were based upon clinically achievable concentrations if the clinical Cmax of the agent was known.
Compounds. The drugs and investigational agents: novobiocin (NSC847541), ART-558 (NSC835418), RP-6685 (NSC848927), peposertib (NSC802822), ceralasertib (NSC780249), elimusertib (NSC800525), camonsertib (NSC841442), AZD-1390 (NSC803789), olaparib (NSC753686), talazoparib (NSC767125), rucaparib (NSC756644), sotorasib (NSC818433), MRTX-1133 (NSC836407), SN-38 (NSC673596), topotecan (NSC609699), epotoside (NSC141540), doxorubicin (NSC123127), gemcitabine (NSC613327), 5-fluorouracil (NSC19893), paclitaxel (NSC125973), vemurafenib (NSC761431), MSA-2 (NSC828583), SN-011 (NSC837082), adavosertib (NSC754352), prexasertib (NSC758257), carboplatin (NSC241240) and oxaliplatin (NSC266046), were obtained from the National Cancer Institute (NCI) Developmental Therapeutics Program Chemical Repository (21). The FDA-approved anticancer drug set is available from the Developmental Therapeutics Program at https://dtp.cancer.gov/organization/dscb/obtaining/. […] The stock solutions were prepared in dimethyl sulfoxide (DMSO, Sigma-Aldrich, St. Louis, MO, cat. D2650), except for the platinum compounds which were prepared in saline (Quality Biological, Gaithersburg, MD, cat. 114-055-101), at 800-fold the tested concentration and stored at -70 degrees C prior to their use. All drugs and investigational agents were tested over a range starting from a high concentration at or near the clinical Cmax and decreasing in half-log increments. If the clinical Cmax for an agent had not been determined, the highest concentration tested was 10 microM, except for SN-38, which was tested at a high concentration of 1 microM.
Cell Culture. All cells were maintained in an incubator at 37 degrees C and 5% CO2 with 95% humidity. The PDC lines were cultured according to standard operating procedures established by the NCI PDMR (https://pdmr.cancer.gov). Table 3 of the manuscript, lists the cell lines along with the number of the three cell types plated to form the mct-spheroids and media for tumor cell growth. After thawing, all PDC lines, except 997537-175-T-J1-PDC and 415267-285-R-J2-PDC, were cultured in Matrigel-coated flasks prepared with a working solution of 1X Ham's F-12 nutrient mix, without supplementation (Thermo Fisher Scientific, cat. 11765054), 100 U/mL penicillin-streptomycin (Thermo Fisher Scientific, cat. 15140122), and 2.5% Matrigel (Corning Inc., Corning, NY, cat. 354248) for the first three passages. The two PDC lines 997537-175-T-J1-PDC and 415267-285-R-J2-PDC were cultured on uncoated flasks. The 857933-349-R-J2-PDC line was cultured in 6C/Colon 1B media containing advanced DMEM/F-12 (Thermo Fisher Scientific, cat. 12634028), 10 mM HEPES (Thermo Fisher Scientific, cat. 15630080), 1X GlutaMAX supplement (Thermo Fisher Scientific, cat. 35050061), 0.1 mg/mL primocin (InvivoGen, San Diego, CA, cat. ant-pm-2), 10% defined fetal bovine serum, heat inactivated (HyClone Laboratories Inc., Logan, UT, cat. SH30070.03HI), 50% L-WRN conditioned media (ATCC, cat. CRL-3276), 1.25 mM N-Acetyl-L-cysteine (Sigma-Aldrich, cat. A9165), 10 mM nicotinamide (Sigma-Aldrich, cat. N0636), 1X B-27 supplement (Thermo Fisher Scientific, cat. 17504044), 1X N-2 supplement (Thermo Fisher Scientific, cat. […]

[1] = second compound 0.0316 µM, first compound 0.0316 µM
[2] = second compound 0.0316 µM, first compound 0.1 µM
[3] = second compound 0.0316 µM, first compound 0.316 µM
[4] = second compound 0.0316 µM, first compound 1 µM
[5] = second compound 0.0316 µM, first compound 3.16 µM
[6] = second compound 0.0316 µM, first compound 10 µM
[7] = second compound 0.1 µM, first compound 0.0316 µM
[8] = second compound 0.1 µM, first compound 0.1 µM
[9] = second compound 0.1 µM, first compound 0.316 µM
[10] = second compound 0.1 µM, first compound 1 µM
[11] = second compound 0.1 µM, first compound 3.16 µM
[12] = second compound 0.1 µM, first compound 10 µM
[13] = second compound 0.316 µM, first compound 0.0316 µM
[14] = second compound 0.316 µM, first compound 0.1 µM
[15] = second compound 0.316 µM, first compound 0.316 µM
[16] = second compound 0.316 µM, first compound 1 µM
[17] = second compound 0.316 µM, first compound 3.16 µM
[18] = second compound 0.316 µM, first compound 10 µM
[19] = second compound 1 µM, first compound 0.0316 µM
[20] = second compound 1 µM, first compound 0.1 µM
[21] = second compound 1 µM, first compound 0.316 µM
[22] = second compound 1 µM, first compound 1 µM
[23] = second compound 1 µM, first compound 3.16 µM
[24] = second compound 1 µM, first compound 10 µM
[25] = second compound 3.16 µM, first compound 0.0316 µM
[26] = second compound 3.16 µM, first compound 0.1 µM
[27] = second compound 3.16 µM, first compound 0.316 µM
[28] = second compound 3.16 µM, first compound 1 µM
[29] = second compound 3.16 µM, first compound 3.16 µM
[30] = second compound 3.16 µM, first compound 10 µM
[31] = second compound 10 µM, first compound 0.0316 µM
[32] = second compound 10 µM, first compound 0.1 µM
[33] = second compound 10 µM, first compound 0.316 µM
[34] = second compound 10 µM, first compound 1 µM
[35] = second compound 10 µM, first compound 3.16 µM
[36] = second compound 10 µM, first compound 10 µM
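Further: spheroids exposed to compounds for seven days before readout.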
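Wherever viability, T/C is given: 100% = DMSO vehicle control viability.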

`C=CC(=O)N1CCN(c2nc(=O)n(-c3c(C)ccnc3C(C)C)c3nc(-c4c(O)cccc4F)c(F)cc23)C(C)C1` (centres undefined) + COC1C(OC(N)=O)C(O)C(Oc2ccc3c(O)c(NC(=O)c4ccc(O)c(CC=C(C)C)c4)c(=O)oc3c2C)OC1(C)C showed an IC50 (second compound 0.0316 µM) greater than 10 µM, an IC50 (second compound 0.1 µM) greater than 10 µM and an IC50 (second compound 0.316 µM) greater than 10 µM. It also gave an IC50 (second compound 1 µM) greater than 10 µM, an IC50 (second compound 3.16 µM) greater than 10 µM and an IC50 (second compound 10 µM) greater than 10 µM. The viability, T/C [1] was 79.2%, the viability, T/C [2] was 77.5% and the viability, T/C [3] was 70.8%. For the same molecule, the viability, T/C [4] was 98.3%, the viability, T/C [5] was 81.7% and the viability, T/C [6] was 87.6%. It also gave a viability, T/C [7] of 72.5%, a viability, T/C [8] of 68.2% and a viability, T/C [9] of 67.3%. It also gave a viability, T/C [10] of 81.8%, a viability, T/C [11] of 102% and a viability, T/C [12] of 80.5%. For the same molecule, the viability, T/C [13] was 70.2%, the viability, T/C [14] was 78.7% and the viability, T/C [15] was 68.5%. For the same molecule, the viability, T/C [16] was 73.7%, the viability, T/C [17] was 85.5% and the viability, T/C [18] was 75.9%. It also gave a viability, T/C [19] of 81.8%, a viability, T/C [20] of 65.9% and a viability, T/C [21] of 73.2%. It also gave a viability, T/C [22] of 78.2%, a viability, T/C [23] of 89.9% and a viability, T/C [24] of 76.5%. It also gave a viability, T/C [25] of 78.3%, a viability, T/C [26] of 62.4% and a viability, T/C [27] of 79.3%. The viability, T/C [28] was 69.5%, the viability, T/C [29] was 79% and the viability, T/C [30] was 76.8%. The viability, T/C [31] was 68%, the viability, T/C [32] was 60.6% and the viability, T/C [33] was 76.5%. For the same molecule, the viability, T/C [34] was 85.5%, the viability, T/C [35] was 84.2% and the viability, T/C [36] was 91.4%.

For `C=CC(=O)N1CCN(c2nc(=O)n(-c3c(C)ccnc3C(C)C)c3nc(-c4c(O)cccc4F)c(F)cc23)C(C)C1` (centres undefined) + Cc1cccc(N(C)C(=O)C2C(O)CCN2c2nc(C)cc(C(F)(F)F)c2C#N)c1, the IC50 (second compound 0.0316 µM) was greater than 10 µM, the IC50 (second compound 0.1 µM) was greater than 10 µM and the IC50 (second compound 0.316 µM) was greater than 10 µM. For the same molecule, the IC50 (second compound 1 µM) was greater than 10 µM, the IC50 (second compound 3.16 µM) was greater than 10 µM and the IC50 (second compound 10 µM) was greater than 10 µM. It also gave a viability, T/C [1] of 72.4%, a viability, T/C [2] of 66.9% and a viability, T/C [3] of 75.6%. The viability, T/C [4] was 84.9%, the viability, T/C [5] was 84.2% and the viability, T/C [6] was 73.4%. For the same molecule, the viability, T/C [7] was 74.2%, the viability, T/C [8] was 79.3% and the viability, T/C [9] was 75.6%. The viability, T/C [10] was 80.8%, the viability, T/C [11] was 79.2% and the viability, T/C [12] was 81.3%. The viability, T/C [13] was 80.2%, the viability, T/C [14] was 62% and the viability, T/C [15] was 72%. The viability, T/C [16] was 82.8%, the viability, T/C [17] was 85.1% and the viability, T/C [18] was 87.2%. For the same molecule, the viability, T/C [19] was 71.4%, the viability, T/C [20] was 66.2% and the viability, T/C [21] was 67.3%. For the same molecule, the viability, T/C [22] was 83.2%, the viability, T/C [23] was 90.6% and the viability, T/C [24] was 79.9%. It also gave a viability, T/C [25] of 65%, a viability, T/C [26] of 59.8% and a viability, T/C [27] of 68.6%. It also gave a viability, T/C [28] of 76.1%, a viability, T/C [29] of 100% and a viability, T/C [30] of 78.3%. The viability, T/C [31] was 78.3%, the viability, T/C [32] was 77.3% and the viability, T/C [33] was 84%. It also gave a viability, T/C [34] of 86.6%, a viability, T/C [35] of 101% and a viability, T/C [36] of 82.7%.
